Data on 18 molecules can be found in patent US20160130259A1, “SUBSTITUTED BENZOFURAN COMPOUNDS AND METHODS OF USE THEREOF FOR THE TREATMENT OF VIRAL DISEASES” (priority 2013, published 2016).

A word on the IC50: it is the concentration that inhibits the measured activity by half.

One test concerns HCV replicon genotype 1b. Description: HCV replicon assay, genotype 1b (cell ELISA for NS3/4A). It counts as cell-based. Particulars: Hepatitis C virus, 96 h, read-out: 1b IC50 (nM). The method, then:
(§1) Measurement of inhibition by compounds was performed using the HCV replicon system. Several different replicons encoding different HCV genotypes or mutations were used. In addition, potency measurements were made using different formats of the replicon assay, including different ways of measurements and different plating formats. See Jan M. Vrolijk et al., A replicons-based bioassay for the measurement of interferons in patients with chronic hepatitis C, 110 J. Virological Methods 201 (2003); Steven S. Carroll et al., Inhibition of Hepatitis C Virus RNA Replication by 2′-Modified Nucleoside Analogs, 278(14) J. Biological Chemistry 11979 (2003). However, the underlying principles are common to all of these determinations, and are outlined below.
(§2) Stable neomycin phosphotransferase encoding replicons-harboring cell lines were used, so all cell lines were maintained under G418 selection prior to the assay. Potency was determined using a cell ELISA assay with an antibody to the replicons encoded NS3/4a protease. See Caterina Trozzi et al., In Vitro Selection and Characterization of Hepatitis C Virus Serine Protease Variants Resistant to an Active-Site Peptide Inhibitor, 77(6) J. Virol. 3669 (2003). To initiate an assay, replicon cells were plated in the presence of a dilution series of test compound in the absence of G418. Typically, the assays were performed in a 96-well plate formate for manual operation, or a 384-well plate format for automated assay. Replicon cells and compound were incubated for 96 hours. At the end of the assay, cells were washed free of media and compound, and the cells were then lysed. RNA was quantified indirectly through detection of replicon-encoded NS3/4A protein levels, through an ELISA-based assay with an antibody specific for NS3/4A. IC50 determinations were calculated as a percentage of a DMSO control by fitting the data to a four-parameter fit function and the data obtained is provided in the table below.
(§3) Data for selected compounds of the present invention was obtained for genotypes 1a and 1b using this method and is provided in the table below: […]
For orientation: In antiviral work, replicon cells carry a viral genome segment that copies itself.

The next test deals with HCV replicon genotype 1a. Kind of test: HCV replicon assay, genotype 1a (cell ELISA for NS3/4A). Format: cell-based. Particulars: Hepatitis C virus, 96 h, read-out: 1a IC50 (nM). How it is done:
as §1, §2, §3

Regarding `CNC(=O)c1c(-c2ccc(F)cc2)oc2cc(N(C)S(C)(=O)=O)c(-c3cc(-c4cc5c(F)cccc5[nH]4)c(=O)n(C)c3)cc12` [Compound 1, 5-(5-(4-fluoro-1H-indol-2-yl)-1-methyl-6-oxo-1,6-dihydropyridin-3-yl)-2-(4-fluorophenyl)-N-methyl-6-(N-methylmethylsulfonamido)benzofuran-3-carboxamide], the IC50 is 3.88 nM with HCV replicon genotype 1b and 3.62 nM with HCV replicon genotype 1a.

In the case of `CNC(=O)c1c(-c2ccc(F)cc2)oc2cc(N(C)S(C)(=O)=O)c(-c3cc(-c4cc5c(C#N)cccc5[nH]4)c(=O)n(C)c3)cc12` [Compound 2, 5-(5-(4-cyano-1H-indol-2-yl)-1-methyl-6-oxo-1,6-dihydropyridin-3-yl)-2-(4-fluorophenyl)-N-methyl-6-(N-methylmethylsulfonamido)-benzofuran-3-carboxamide], the 50% inhibitory concentration (IC50) is 2.43 nM with HCV replicon genotype 1b and 2.47 nM in the test on HCV replicon genotype 1a.

Turning to `CNC(=O)c1c(-c2ccc(F)cc2)oc2cc(N(C)S(C)(=O)=O)c(-c3cc(-c4cc5c(F)cccc5[nH]4)c(=O)n(C(F)F)c3)cc12` [Compound 3, 5-(1-(difluoromethyl)-5-(4-fluoro-1H-indol-2-yl)-6-oxo-1,6-dihydropyridin-3-yl)-2-(4-fluorophenyl)-N-methyl-6-(N-methylmethyl-sulfonamido)benzofuran-3-carboxamide], the IC50 in the test on HCV replicon genotype 1b came out at 5.37 nM; in the test on HCV replicon genotype 1a, 2.98 nM.

Consider `CNC(=O)c1c(-c2ccc(F)cc2)oc2cc(N(C)S(C)(=O)=O)c(-c3cc(-c4cnn(-c5ccc(F)cc5)c4)c(=O)n(C)c3)cc12` [Compound 4, 2-(4-fluorophenyl)-5-(5-(1-(4-fluorophenyl)-1H-pyrazol-4-yl)-1-methyl-6-oxo-1,6-dihydropyridin-3-yl)-N-methyl-6-(N-methyl-methylsulfonamido)benzo-furan-3-carboxamide], for which the IC50 in the test with HCV replicon genotype 1b is 6.81 nM; with HCV replicon genotype 1a, 5.71 nM.

Regarding `CNC(=O)c1c(-c2ccc(F)cc2)oc2cc(N(C)S(C)(=O)=O)c(-c3cc(-c4nc5ccccc5o4)c(=O)n(C)c3)cc12` [Compound 5, 5-(5-(benzo[d]oxazol-2-yl)-1-methyl-6-oxo-1,6-dihydropyridin-3-yl)-2-(4-fluorophenyl)-N-methyl-6-(N-methylmethylsulfonamido)benzofuran-3-carboxamide], the values for the IC50 with HCV replicon genotype 1b and in the test with HCV replicon genotype 1a were 3.71 nM and 5.82 nM, respectively.

`CNC(=O)c1c(-c2ccc(F)cc2)oc2cc(N(C)S(C)(=O)=O)c(-c3cc(N4Cc5c(F)cccc5C4=O)c(=O)n(C)c3)cc12` [Compound 6, 5-(5-(4-fluoro-1-oxoisoindolin-2-yl)-1-methyl-6-oxo-1,6-dihydropyridin-3-yl)-2-(4-fluorophenyl)-N-methyl-6-(N-methylmethylsulfonamido)benzofuran-3-carboxamide]: the figures for the IC50 with HCV replicon genotype 1b and in the test on HCV replicon genotype 1a were 8.38 nM and 16.5 nM, respectively.

On to `CNC(=O)c1c(-c2ccc(F)cc2)oc2cc(N(C)S(C)(=O)=O)c(-c3cc(-c4cc5c(F)cccc5n4C)c(=O)n(C)c3)cc12` [Compound 7, 5-(5-(4-fluoro-1-methyl-1H-indol-2-yl)-1-methyl-6-oxo-1,6-dihydropyridin-3-yl)-2-(4-fluorophenyl)-N-methyl-6-(N-methylmethylsulfonamido)benzofuran-3-carboxamide], for which the IC50 in the test on HCV replicon genotype 1b was found to be 1.1 nM; in the test with HCV replicon genotype 1a, 1.55 nM.

Regarding `CNC(=O)c1c(-c2ccc(F)cc2)oc2cc(N(C)S(C)(=O)=O)c(-c3cc(-c4cc5c(F)cccc5n4C)c(=O)n(C(F)F)c3)cc12` [Compound 8, 5-(1-(difluoromethyl)-5-(4-fluoro-1-methyl-1H-indol-2-yl)-6-oxo-1,6-dihydropyridin-3-yl)-2-(4-fluorophenyl)-N-methyl-6-(N-methyl-methylsulfonamido)benzo-furan-3-carboxamide], the IC50 in the test with HCV replicon genotype 1b came to 5.95 nM; in the test on HCV replicon genotype 1a it was 6.45 nM.

For the molecule `CNC(=O)c1c(-c2ccc(F)cc2)oc2cc(N(C)S(C)(=O)=O)c(-c3cc(-c4cc5ncccc5o4)c(=O)n(C)c3)cc12` [Compound 9, 2-(4-fluorophenyl)-5-(5-(furo[3,2-b]pyridin-2-yl)-1-methyl-6-oxo-1,6-dihydropyridin-3-yl)-N-methyl-6-(N-methylmethylsulfonamido)benzofuran-3-carboxamide], the IC50 stood at 4.16 nM with HCV replicon genotype 1b and 13.4 nM with HCV replicon genotype 1a.

With `CNC(=O)c1c(-c2ccc(F)cc2)oc2cc(N(C)S(C)(=O)=O)c(-c3cc(-c4nc5ncccc5o4)c(=O)n(C)c3)cc12` [Compound 10, 2-(4-fluorophenyl)-N-methyl-5-(1-methyl-5-(oxazolo[4,5-b]pyridin-2-yl)-6-oxo-1,6-dihydropyridin-3-yl)-6-(N-methylmethylsulfonamido) benzofuran-3-carboxamide], the IC50 with HCV replicon genotype 1b was 10.1 nM; in the test with HCV replicon genotype 1a it was 22.7 nM.

`CNC(=O)c1c(-c2ccc(F)cc2)oc2cc(N(C)S(C)(=O)=O)c(-c3cc(-c4cc5c(F)cccc5[nH]4)cn(C)c3=O)cc12` [Compound 11, 5-(5-(4-fluoro-1H-indol-2-yl)-1-methyl-2-oxo-1,2-dihydropyridin-3-yl)-2-(4-fluorophenyl)-N-methyl-6-(N-methylmethylsulfonamido)benzofuran-3-carboxamide]: the IC50 amounted to 2.67 nM with HCV replicon genotype 1b and 3.84 nM with HCV replicon genotype 1a.

With `CNC(=O)c1c(-c2ccc(F)cc2)oc2cc(N(C)S(C)(=O)=O)c(-c3cc(-c4cc5c(C#N)cccc5[nH]4)cn(C)c3=O)cc12` [Compound 12, 5-(5-(4-cyano-1H-indol-2-yl)-1-methyl-2-oxo-1,2-dihydropyridin-3-yl)-2-(4-fluorophenyl)-N-methyl-6-(N-methylmethylsulfonamido) benzofuran-3-carboxamide], the figures for the half-maximal inhibitory concentration (IC50) in the test with HCV replicon genotype 1b and in the test with HCV replicon genotype 1a were 1.67 nM and 3.28 nM, respectively.

Take `CNC(=O)c1c(-c2ccc(F)cc2)oc2cc(N(C)S(C)(=O)=O)c(-c3cc(-c4cc5c(F)cccc5[nH]4)c(=O)n(C)n3)cc12` [Compound 13, 5-(5-(4-fluoro-1H-indol-2-yl)-1-methyl-6-oxo-1,6-dihydropyridazin-3-yl)-2-(4-fluorophenyl)-N-methyl-6-(N-methylmethylsulfonamido)benzofuran-3-carboxamide]: the IC50 in the test on HCV replicon genotype 1b came out at 6.59 nM; with HCV replicon genotype 1a it was 4.52 nM.

For `CNC(=O)c1c(-c2ccc(F)cc2)oc2cc(N(C)S(C)(=O)=O)c(-c3cc(-c4cc5c(C#N)cccc5[nH]4)c(=O)n(C)n3)cc12` [Compound 14, 5-(5-(4-cyano-1H-indol-2-yl)-1-methyl-6-oxo-1,6-dihydropyridazin-3-yl)-2-(4-fluorophenyl)-N-methyl-6-(N-methylmethylsulfonamido) benzofuran-3-carboxamide], the 50% inhibitory concentration (IC50) amounted to 4.43 nM with HCV replicon genotype 1b and 3.55 nM with HCV replicon genotype 1a.

As for `CNC(=O)c1c(-c2ccc(F)cc2)oc2cc(N(C)S(C)(=O)=O)c(-c3cc(-c4cc5ncccc5[nH]4)c(=O)n(C)n3)cc12` [Compound 15, 2-(4-fluorophenyl)-N-methyl-5-(1-methyl-6-oxo-5-(1H-pyrrolo[3,2-b]pyridin-2-yl)-1,6-dihydropyridazin-3-yl)-6-(N-methylmethylsulfonamido) benzofuran-3-carboxamide], the IC50 with HCV replicon genotype 1b stood at 81.1 nM; in the test with HCV replicon genotype 1a, 238 nM.

With `CNC(=O)c1c(-c2ccc(F)cc2)oc2cc(N(C)S(C)(=O)=O)c(-c3cc(-c4cc5c(F)cccc5n4C)c(=O)n(C)n3)cc12` [Compound 16, 5-(5-(4-fluoro-1-methyl-1H-indol-2-yl)-1-methyl-6-oxo-1,6-dihydropyridazin-3-yl)-2-(4-fluorophenyl)-N-methyl-6-(N-methylmethylsulfonamido)benzofuran-3-carboxamide], the IC50 in the test on HCV replicon genotype 1b and in the test with HCV replicon genotype 1a was 1.38 nM in each case.

With `CNC(=O)c1c(-c2ccc(F)cc2)oc2cc(N(C)S(C)(=O)=O)c(-c3cc(-c4cc5c(C#N)cccc5n4C)c(=O)n(C)n3)cc12` [Compound 17, 5-(5-(4-cyano-1-methyl-1H-indol-2-yl)-1-methyl-6-oxo-1,6-dihydropyridazin-3-yl)-2-(4-fluorophenyl)-N-methyl-6-(N-methylmethylsulfonamido) benzofuran-3-carboxamide], the IC50 in the test with HCV replicon genotype 1b was 4.26 nM; in the test on HCV replicon genotype 1a, 2.29 nM.

`CNC(=O)c1c(-c2ccc(F)cc2)oc2cc(N(C)S(C)(=O)=O)c(-c3cc(-c4cc5c(C#N)cccc5n4CCOC)c(=O)n(C)n3)cc12` [Compound 18, 5-(5-(4-cyano-1-(2-methoxyethyl)-1H-indol-2-yl)-1-methyl-6-oxo-1,6-dihydropyridazin-3-yl)-2-(4-fluorophenyl)-N-methyl-6-(N-methylmethylsulfonamido)benzofuran-3-carboxamide]: the values for the IC50 in the test on HCV replicon genotype 1b and in the test on HCV replicon genotype 1a were 5.02 nM and 3.15 nM, respectively.
